# From ChEMBL document CHEMBL1255378, “Emergence of the plasmid-mediated quinolone resistance gene qnrS1 in Escherichia coli isolates in Greece” (2008)
# Legend:
# Escherichia coli [1] = experiment: Antimicrobial activity against qnrS1-positive ampicillin-resistant Escherichia coli isolate 8 expressing gyrA S83L/D87N and parC S80I mutants by Etest
# Escherichia coli [2] = experiment: Antimicrobial activity against qnrS1-positive multidrug-resistant Escherichia coli isolate 10 expressing gyrA S83L/D87N and parC S80I mutants by Etest
# Escherichia coli [3] = experiment: Antimicrobial activity against qnrS1-positive ampicillin-resistant Escherichia coli isolate 7 expressing gyrA S83L/D87N and parC S80I mutants by Etest
# Escherichia coli [4] = experiment: Antimicrobial activity against Escherichia coli harboring plasmid carrying qnrS1 gene by Etest
# Escherichia coli [5] = experiment: Antimicrobial activity against qnrS1-positive multidrug-resistant Escherichia coli isolate 9 expressing gyrA S83L/D87N and parC S80I mutants by Etest
# Escherichia coli [6] = experiment: Antimicrobial activity against qnrS1-positive multidrug-resistant Escherichia coli isolate 3 expressing beta-lactamase CTX-M-15, gyrA S83L/D87N and parC S80I mutant by Etest
# Escherichia coli [7] = experiment: Antimicrobial activity against qnrS1-positive multidrug-resistant Escherichia coli isolate 4 expressing gyrA S83L/D87N and parC S80I mutants by Etest
# Escherichia coli [8] = experiment: Antimicrobial activity against qnrS1-positive ampicillin and amoxicillin-resistant Escherichia coli isolate 6 expressing gyrA S83L/D87N and parC S80I mutants by Etest
structure (smiles),measurement,setting,value
O=C(O)c1cn(C2CC2)c2cc(N3CCNCC3)c(F)cc2c1=O [CIPROFLOXACIN],MIC,Escherichia coli [1],128 µg/mL
same,MIC,Escherichia coli [2],128 µg/mL
same,MIC,Escherichia coli [3],128 µg/mL
same,MIC,Escherichia coli [4],0.032 µg/mL
same,MIC,Escherichia coli [5],128 µg/mL
same,MIC,Escherichia coli [6],64 µg/mL
same,MIC,Escherichia coli [7],64 µg/mL
same,MIC,Escherichia coli [8],64 µg/mL
